Experimental data taken from patent publication US20250319213A1, “FUNCTIONALIZED BISAMINOTHIOL DERIVATIVES, COMPLEXES WITH THESE BISAMINOTHIOL DERIVATIVES AND USE OF SAID COMPLEXES AS DIAGNOSTICS AND THERAPEUTICS” (ABX ADVANCED BIOCHEMICAL COMPOUNDS – BIOMEDIZINISCHE …, priority 2022, published 2025).

Key:
PSMA = molecular target: T1, PSMA (Homo sapiens, UniProt Q04609); experiment: Direct binding affinity on LNCaP cells (saturation); conditions: [99mTc]TcO complex of the listed compound, saturation 0.3-40 nM, 1 h 37° C., mean ± SEM, read-out: Kd [nM] of [99mTc]TcO-complexes
T1 construct: host or cells: LNCaP human prostate carcinoma cells
T1 sequence (Q04609 whole entry): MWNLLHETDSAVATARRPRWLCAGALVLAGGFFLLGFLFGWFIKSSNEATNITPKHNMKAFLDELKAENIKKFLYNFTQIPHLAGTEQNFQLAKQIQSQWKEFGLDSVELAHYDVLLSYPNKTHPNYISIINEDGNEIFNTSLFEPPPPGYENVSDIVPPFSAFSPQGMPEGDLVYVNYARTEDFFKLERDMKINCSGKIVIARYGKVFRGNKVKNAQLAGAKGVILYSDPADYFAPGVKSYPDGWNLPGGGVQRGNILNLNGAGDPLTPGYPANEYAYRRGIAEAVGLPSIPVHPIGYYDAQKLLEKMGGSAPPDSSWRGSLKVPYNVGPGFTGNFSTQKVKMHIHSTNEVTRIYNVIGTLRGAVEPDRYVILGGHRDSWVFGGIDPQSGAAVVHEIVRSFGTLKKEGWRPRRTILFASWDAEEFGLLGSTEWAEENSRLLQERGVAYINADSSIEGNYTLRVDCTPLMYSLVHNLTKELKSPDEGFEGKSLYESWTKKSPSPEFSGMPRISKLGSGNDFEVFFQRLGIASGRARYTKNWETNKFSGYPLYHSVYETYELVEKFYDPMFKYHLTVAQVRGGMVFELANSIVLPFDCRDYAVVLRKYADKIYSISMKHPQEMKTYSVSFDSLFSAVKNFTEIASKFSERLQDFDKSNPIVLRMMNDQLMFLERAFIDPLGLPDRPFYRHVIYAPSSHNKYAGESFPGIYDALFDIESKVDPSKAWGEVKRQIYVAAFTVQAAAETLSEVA
Procedure: (§1) Competition, saturation and internalization assays were assessed using the high PSMA expressing human prostate carcinoma cell line LNCaP (ATCC® CRL-1740). The cells were grown as monolayer at 37° C. in a humidified atmosphere comprising 5% CO2 and 95% air in RPMI medium including 10% FCS (Merck KGAA, Germany). After washing the confluent cells twice with phosphate buffered saline (PBS) and detaching them with trypsin/EDTA (0.05%/0.02%), the cells were suspended in medium and counted (Casy TT, Omni Life Science, Germany).
For saturation monolayer of LNCaP cells were seeded, 5×10^4 cells/well in 48-well plates two days before the assay. On the day of saturation, after aspirating the medium, 160 μL of medium (for ^99mTc-labeled radioligand with D-mannitol (1 mg/mL)) were pipetted per well, for non-specific binding samples including 100 μM 2-PMPA. After preincubation for 5 min, 40 μL activity ([^68Ga]Ga-PSMA-11 or ^99mTc-labeled radioligand solution) were added (total volume/well: 200 μL). Eight concentrations ranged between 0.3 and 40 nM.
After 1 hour of incubation at 37° C. both for competition and saturation samples, the supernatants were aspirated and the cells washed twice with cold PBS. The cell lawn was lysed with 500 μL NaOH/SDS (0.1 M/1%) by shaking for 3 to 5 minutes. After transferring the lysates into measuring tubes, the activity of the samples was measured in a gamma counter (2480 Automatic Gamma Counter Wizard 2, Perkin Elmer, USA).
The half maximal inhibitory concentrations (IC50) and the dissociations constants (Kd) were calculated by fitting the data using a nonlinear curve-fitting program (GraphPad Prism 9). With the Kd value of [^68Ga]Ga-PSMA-11 on LNCaP and the known concentration of [^68Ga]Ga-PSMA-11 in the competition assay the inhibition constants (Ki) was also determined with the curve-fitting program.

[1] = Product stability in DPBS at 25° C.; type: physicochemical; conditions: DPBS (+Ca2+, +Mg2+), mean ± SD, normalized to fraction immediately after preparation
Procedure: In brief, the freshly produced ^99mTc-labeled radioligand solution (10-20 MBq, 20-100 μL) was added to the respective medium (200-400 μL), vortexed quickly, and shook gently at the respective temperature mentioned below. At certain time points, samples were taken, diluted, and measured by radio-RP-HPLC. Hereby, investigation of plasma samples included protein precipitation with the 4-fold volume of an ice-cold mixture of methanol/water (4/1, v/v), intensive shaking (5 min) and centrifugation (14,000 rpm, 10 min), before inspection of the supernatant. In addition, the recovery of extracted activity was calculated after activity measurement of supernatant and residue by a gamma counter.

LNCaP cells = experiment: Determination of the internalization (surface binding and internalized activity); type: cell-based, human; conditions: 1 h; for Internalization, 4° C. (% AD/mg Protein) / Internalization, 37° C. (% AD/mg Protein): cytosolic activity; for Internalization, 4° C. (% AD/mg Protein) / Internalization, 37° C. (% AD/mg Protein) / Binding, 4° C. (% AD/mg Protein) / Binding, 37° C. (% AD/mg Protein): 25 nM radioligand, mean ± SEM; for Binding, 4° C. (% AD/mg Protein) / Binding, 37° C. (% AD/mg Protein): surface-bound activity
Procedure: as §1
For internalization LNCaP and PC3 cells were seeded, 1×10^5 cells/well in 24-well plates two days before the assay. On the day of internalization, after aspirating the medium, 100 μL of PBS and, for non-specific binding samples, 100 μL 2-PMPA (100 μM) were pipetted into the wells, followed by 400 μL medium including activity. The concentration of the ^99mTc-labeled radioligands was 25 nM. After 1 h of incubation at 37° C. and adjacent well plates at 4° C., the supernatant was removed and the cells washed with cold PBS. Surface-bound activity was stripped with 4° C. cold acid-wash buffer (0.2 M glycine, pH 2.8) for 5 min. The acid wash buffer was transferred from the plate wells to measuring tubes, as was the PBS buffer after washing once (binding on the surface). Cytosolic activity was determined after treatment with cell lysis buffer (0.1 M NaOH/1% SDS). Cell surface and cytosolic activity were measured separately in a gamma counter. Determination of protein content from cell lysate was performed using a spectrophotometer (NanoDrop, Thermo Fisher Scientific, USA) at an absorbance of 280 nm.

| Kd (PSMA) [nM] | SMILES | % Internalization, 37° C. (LNCaP cells) [%] | Internalization, 4° C. (% AD/mg Protein) (LNCaP cells) | Internalization, 37° C. (% AD/mg Protein) (LNCaP cells) | Binding, 4° C. (% AD/mg Protein) (LNCaP cells) | Binding, 37° C. (% AD/mg Protein) (LNCaP cells) | further results |
| --- | --- | --- | --- | --- | --- | --- | --- |
| 4.7 ± 3.2 | CC(C)(S)CNCCN(CCCCC(=O)N[C@H](Cc1ccc(O)c(I)c1)C(=O)N[C@H](Cc1ccccc1)C(=O)N[C@H](CCCCNC(=O)CCCCCCC(=O)NCCCC[C@H](NC(=O)N[C@@H](CCC(=O)O)C(=O)O)C(=O)O)C(=O)O)CC(C)(C)S [Compound 4] |  |  |  |  |  |  |
| 7.3 | O=C(O)CC[C@H](NC(=O)N[C@@H](CCCCNC(=O)CCCCCCC(=O)NCCCC[C@@H](NC(=O)[C@H](CCC(=O)O)NC(=O)[C@H](CCC(=O)O)NC(=O)CCC(=O)NCCCN(CCS)CCNCCS)C(=O)O)C(=O)O)C(=O)O [Compound 6] |  |  |  |  |  |  |

The next lines start with the compound.

| SMILES | Kd (PSMA) [nM] | % Internalization, 37° C. (LNCaP cells) [%] | Internalization, 4° C. (% AD/mg Protein) (LNCaP cells) | Internalization, 37° C. (% AD/mg Protein) (LNCaP cells) | Binding, 4° C. (% AD/mg Protein) (LNCaP cells) | Binding, 37° C. (% AD/mg Protein) (LNCaP cells) | further results |
| --- | --- | --- | --- | --- | --- | --- | --- |
| CC(C)(S)CNCCN(CCCCC(=O)N[C@@H](Cc1ccccc1)C(=O)N[C@@H](Cc1ccccc1)C(=O)N[C@H](CCCCNC(=O)CCCCCCC(=O)NCCCC[C@H](NC(=O)N[C@@H](CCC(=O)O)C(=O)O)C(=O)O)C(=O)O)CC(C)(C)S [Compound 2] | 32.1 ± 24.3 |  |  |  |  |  |  |
| CC1(C)CN(CCCCC(=O)N[C@H](Cc2ccc(O)c(I)c2)C(=O)N[C@H](Cc2ccccc2)C(=O)N[C@H](CCCCNC(=O)CCCCCCC(=O)NCCCC[C@H](NC(=O)N[C@@H](CCC(=O)O)C(=O)O)C(=O)O)C(=O)O)CC[N]2CC(C)(C)[S][99Tc]2(=[O])[S]1 (some centres unmarked) [[^99mTc]TcO-4] |  | 39.2 | 0.2 ± 0.0 | 1.9 ± 0.9 | 2.2 ± 0.1 | 2.9 ± 0.5 | Fraction of radioligand in DPBS at 25° C., 1 h ([1]; 1 h): 88.4 ± 14.8%; Fraction of radioligand in DPBS at 25° C., 2 h ([1]; 2 h): 100 ± 1.8%; Fraction of radioligand in DPBS at 25° C., 4 h ([1]; 4 h): 105.5%; Fraction of radioligand in DPBS at 25° C., 20 h ([1]; 20 h): 98.0 ± 1.0% |
| O=C([O-])CN(CCN(CC(=O)[O-])Cc1cc(CCC(=O)NCCCCCC(=O)NCCCC[C@H](NC(=O)N[C@@H](CCC(=O)O)C(=O)O)C(=O)O)ccc1[O-])Cc1cc(CCC(=O)O)ccc1[O-].[68Ga+3].[OH3+] [^68Ga-PSMA11, reference compound] |  | 40.3 | 0.1 ± 0.0 | 0.5 ± 0.2 | 0.3 ± 0.4 | 0.8 ± 0.2 |  |
